From patent publication US20140274919A1, “BORON-CONTAINING COMPOSITIONS AND METHODS THEREFOR” (VDF FutureCeuticals, Inc., priority 2011, published 2014)

Key:
Type in all cases: in vivo
adiponectin = experiment: Oral administration to human volunteers: blood concentration of adiponectin; details: samples at 30 minute intervals vs time 0, FIG. 2
Description: In this instance the effect of oral administration of CFB on the blood concentration of adiponectin, along with the effect of administration of sodium borate (Na borate), and a placebo compound was measured. Blood samples were taken at a time 0 prior to administration in order to establish a baseline concentration for each individual. Additional samples were taken at 30 minute intervals, and the concentration of adiponectin compared to the baseline level determined for each individual. […] The mechanism for this increase in adiponectin concentration in the blood is not known, but it is contemplated that it may due to increased synthesis, increased release of stored adiponectin, or a combination of these. Therefore, in some embodiments of the inventive subject matter blood concentrations of adiponectin may be increased by about 1%, 2%, 3%, 4%, 5%, 10%, 15%, 20%, 25%, 30%, or more relative to pretreatment values following administration of a boro-carbohydrate complex.
(§1) In all of the above oral administrations, the human volunteers were provided with orally administered single daily doses of 5-50 mg of calcium fructoborate for at least 14 days. […]

[1] = tested on: under-carboxylated osteocalcin; experiment: Oral administration to human volunteers: under-carboxylated osteocalcin in blood (Cusabio immunoassay); details: single daily doses of 5-50 mg, samples after 7 and 14 days vs day 0, FIG. 1
Description: In this instance the effect of administration of a CFB on the concentration of under-carboxylated osteocalcin in the blood of human volunteers, along with the effect of administration of sodium borate (Na borate) and a placebo compound was measured. Blood samples were taken at day 0 prior to administration in order to establish a baseline concentration for each individual. Additional samples were taken after 7 and 14 days of treatment. Under-carboxylated osteocalcin was characterized using a commercially available immunoassay from Cusabio Biotech Co. LTD (Newark, Del.) according to the manufacturer's directions, and the percentage change from pretreatment concentrations of under-carboxylated osteocalcin were calculated. […] In some embodiments of the inventive subject matter the percentage of under-carboxylated osteocalcin (including non-carboxylated osteocalcin) may thus be reduced by about 1%, 2%, 3%, 4%, 5%, 10%, 15%, 20%, 25%, 30%, 35%, 40%, 45%, 50% or more relative to pretreatment values following oral administration of CFB.
as §1

total osteocalcin = experiment: Oral administration to human volunteers: total osteocalcin in blood; details: data not shown
YKL-40 = experiment: Oral administration to human volunteers: YKL-40 in blood (Quidel immunoassay); details: samples after 7 and 14 days vs Day 0, FIG. 3
Description: In all of the above oral administrations, the human volunteers were provided with orally administered single daily doses of 5-50 mg of calcium fructoborate for at least 14 days. However, it should be noted that the orally administered compositions may vary considerably, so long as at least 0.1 mg, more typically at least 1.0 mg, and most typically at least 10-100 mg of the compound are administered to the human (or other mammal). Thus, typical administrations will provide 0.001-0.01 mg/kg, more typically 0.01-0.1 mg/kg, and most typically 0.1-5.0 mg/kg (and in some cases even higher) of the boro-carbohydrate compound per day. […]
In this instance the effect of the administration of CFB on the concentration of YKL-40 in the blood of human volunteers, along with the effect of administration of sodium borate (Na borate) and a placebo compound, was measured. […]
Additional samples were taken after 7 and 14 days of treatment, and the concentration of YKL-40 compared to the baseline level determined for each individual. YKL-40 was characterized using a commercially available immunoassay from Quidel (San Diego, Calif.) according to the manufacturer's directions, and the percentage change from pretreatment concentrations of YKL-40 were calculated. […]

C-reactive protein (CRP) = experiment: Oral administration to human volunteers: circulating C-reactive protein; details: FIG. 4
Description: In all of the above oral administrations, the human volunteers were provided with orally administered single daily doses of 5-50 mg of calcium fructoborate for at least 14 days. However, it should be noted that the orally administered compositions may vary considerably, so long as at least 0.1 mg, more typically at least 1.0 mg, and most typically at least 10-100 mg of the compound are administered to the human (or other mammal). Thus, typical administrations will provide 0.001-0.01 mg/kg, more typically 0.01-0.1 mg/kg, and most typically 0.1-5.0 mg/kg (and in some cases even higher) of the boro-carbohydrate compound per day. Such administration may be performed in numerous formats, and all types of formulations comprising contemplated compounds are deemed suitable for use herein, including as nutritional supplement, as ingredient in a snack (e.g., energy bar, fruit leather, etc.), a cereal, a beverage, etc.
Additionally, it is contemplated that compounds and compositions according to the inventive subject matter may influence various parameters associated with an inflammatory response, as YKL-40 has been proposed as a diagnostic marker for inflammation. […] Thus, it should be appreciated that contemplated compositions are especially advantageous in reduction of inflammatory markers and conditions associated with increased levels of such markers.

| Compound | blood concentration of adiponectin compared to baseline (adiponectin) | concentration of under-carboxylated osteocalcin in blood, percentage change from pretreatment [1] | effect on total osteocalcin (total osteocalcin) | concentration of YKL-40 in blood, percentage change from pretreatment (YKL-40) | concentration of circulating CRP (C-reactive protein (CRP)) |
| --- | --- | --- | --- | --- | --- |
| O.O.O.O.O.O.O.O.O.O.[Na+].[Na+].[O-]B1OB2OB([O-])OB(O1)O2 [sodium borate, reference compound] | similar, but markedly reduced, effect | – | – | – | – |
| calcium fructoborate [CFB] | rapid and sustained increase | significant reduction | no discernable effect | significant reduction | substantially greater effect on reducing the concentration of CRP than sodium borate |
